Reference: ChEMBL document CHEMBL1201862, “PubChem BioAssay data set” (2004)
Calls of active or inactive are those of the source.

Tests used:
[1] = target: Neurotensin receptor type 1 (Homo sapiens, UniProt P30989); format: functional;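 further: Image-based confirmatory dose-response assay measuring agonist activity at NTR1; NTR1-expressing U2OS osteosarcoma cells imaged for beta-arrestin GFP spot formation; agonist potency where compounds increase beta-arrestin recruitment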
[2] = target: T1, Oxysterols receptor LXR-beta (Homo sapiens, UniProt P55055); format: functional, cell-based;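 further: Cell-based luminescence dose-response assay of agonist activity at LXR, run as a confirmatory counterscreen to a daf-12 agonist screen; HEK293 cells with Gal4-LXR fusion and GAL4-driven luciferase reporter; agonist potency from rising luciferase signal of a Gal4-LXR reporter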
T1 sequence (P55055 whole entry): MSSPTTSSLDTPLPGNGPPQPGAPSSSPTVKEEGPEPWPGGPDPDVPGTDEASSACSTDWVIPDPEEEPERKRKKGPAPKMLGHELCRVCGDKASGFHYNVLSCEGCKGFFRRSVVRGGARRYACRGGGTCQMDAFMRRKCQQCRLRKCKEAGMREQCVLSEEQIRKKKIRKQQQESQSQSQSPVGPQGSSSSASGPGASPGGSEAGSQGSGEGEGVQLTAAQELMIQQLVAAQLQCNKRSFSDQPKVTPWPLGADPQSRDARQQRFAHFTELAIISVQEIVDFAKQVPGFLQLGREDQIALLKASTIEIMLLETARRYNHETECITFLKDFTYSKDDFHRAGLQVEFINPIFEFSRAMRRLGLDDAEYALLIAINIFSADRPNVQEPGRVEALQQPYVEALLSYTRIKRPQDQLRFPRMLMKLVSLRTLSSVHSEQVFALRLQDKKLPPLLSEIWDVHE

cells [3] = assay: cells
[4] = target: Dual specificity protein phosphatase 3 (Homo sapiens, UniProt P51452); assay: VHR1 inhibitor Ki determination, SAR follow-up, biochemical, colorimetric (AID 2004)
[5] = target: T2, Neuropeptides B/W receptor type 1 (Homo sapiens, UniProt P48145); assay: Fluorescence-based dose response cell-based high throughput screening assay to identify antagonists of the G-protein coupled receptor 7 (GPR7). [Related pubchem assays: 1952 (Screening assay (GPR7 antagonists).), 1880 (Summary AID.)]; format: functional
T2 sequence (P48145 whole entry): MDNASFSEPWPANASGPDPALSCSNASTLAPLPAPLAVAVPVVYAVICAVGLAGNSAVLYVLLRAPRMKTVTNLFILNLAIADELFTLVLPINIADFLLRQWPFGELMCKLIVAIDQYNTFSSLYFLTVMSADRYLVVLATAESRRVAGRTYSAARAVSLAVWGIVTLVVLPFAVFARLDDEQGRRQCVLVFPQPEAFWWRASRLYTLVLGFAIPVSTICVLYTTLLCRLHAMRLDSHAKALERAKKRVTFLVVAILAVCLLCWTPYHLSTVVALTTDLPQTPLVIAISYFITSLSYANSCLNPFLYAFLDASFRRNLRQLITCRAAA

[6] = target: Melanin-concentrating hormone receptor 1 (Homo sapiens, UniProt Q99705); assay: Fluorescence-based counterscreen for antagonists of the G-protein coupled receptor 7 (GPR7): cell-based high throughput dose response assay to identify antagonists of the melanin-concentrating hormone receptor 1 (MCHR1).; format: functional
[7] = inhibitors of intracellular T. cruzi replication, confirmation, NIH3T3 host cells, beta-gal luminescence (AID 2044); format: functional, cell-based;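 further: intracellular parasites grown in NIH/3T3 mouse fibroblasts as host cells; luminescent beta-galactosidase reporter signal from transgenic T. cruzi replicating inside host cells; inhibitors lower the luminescence signal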
[8] = microbe, parasite or virus in culture; format: functional; settings: Mycobacterium tuberculosis
[9] = cytotoxicity toward NIH3T3 fibroblasts, dose response, counter-screen, cell-based, ATP luminescence, mouse fibroblasts (AID 2010); format: functional;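 further: cells exposed to compound for about 90 hours before reading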
Interleukin-8 [10] = target: T3, Interleukin-8 (Homo sapiens, UniProt P10145); assay: SAR analysis of Tumor necrosis factor alpha (TNF-alpha) induced IL-8 secretion in MCF-7/NOD1 cells - Set 2. [Related pubchem assays (depositor defined):AID1575, AID2250, AID2260]; format: functional, cell-based
T3 sequence (P10145 whole entry): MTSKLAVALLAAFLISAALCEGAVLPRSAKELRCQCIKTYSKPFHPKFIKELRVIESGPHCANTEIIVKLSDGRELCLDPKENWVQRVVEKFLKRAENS

Interleukin-8 [11] = target: T3, Interleukin-8; assay: SAR analysis of GM-Tri-DAP induced IL-8 secretion in MCF-7/NOD1 cells - Set 2. [Related pubchem assays (depositor defined):AID1575, AID1578, AID2333]; format: functional, cell-based
Tumor necrosis factor = Tumor necrosis factor (Homo sapiens, UniProt P01375); assay: TNFa-triggered NF-kB activation inhibitors, SAR follow-up, cell-based, revised (AID 2337); format: functional
[12] = THP-1 cell cytotoxicity, dose response, cytotoxicity control for non-replicating M. tuberculosis project (AID 489025); format: functional
[13] = target: Nucleotide-binding oligomerization domain-containing protein 1 (Homo sapiens, UniProt Q9Y239); assay: NOD1 signaling inhibitors, SAR follow-up, revised (AID 2333); format: functional
[14] = HepG2 cell cytotoxicity, dose response, cytotoxicity control for non-replicating M. tuberculosis project (AID 489018); format: functional; settings: Mycobacterium tuberculosis
[15] = Vero E6 cell cytotoxicity, dose response, cytotoxicity control for non-replicating M. tuberculosis project, secondary assay (AID 492998); format: functional, VeroE6; settings: Vero C1008
[16] = target: Nucleotide-binding oligomerization domain-containing protein 2 (Homo sapiens, UniProt Q9HC29); assay: PubChem AID 2334; format: functional
cells [17] = format: functional
HEK293 [18] = assay: cells; settings: Homo sapiens
[19] = target: T2, Neuropeptides B/W receptor type 1; assay: GPR7 antagonist potency, late-stage follow-up, cell-based, fluorescence, dose response (AID 463251); format: functional
[20] = target: T4, Voltage-gated N-type calcium channel alpha-1B subunit/Amyloid beta A4 precursor protein-binding family A member 1 (Homo sapiens, UniProt Q00975+Q02410); assay: disruptors of Mint-PDZ/N-type channel peptide interaction – biochemical, HTRF, set 2, SAR follow-up (AID 434980); format: functional
[21] = target: T4, Voltage-gated N-type calcium channel alpha-1B subunit/Amyloid beta A4 precursor protein-binding family A member 1; assay: disruptors of Mint-PDZ/N-type channel peptide interaction – biochemical, HTRF, SAR follow-up (AID 2489); format: functional
Bcl-2-like protein 10 = target: T5, Bcl-2-like protein 10 (Homo sapiens, UniProt Q9HD36); assay: displacers of TR3 peptide from Bcl-B, primary screen, selectivity assay for Bfl-1 inhibitor project, biochemical, fluorescence polarization, FITC-TR3 peptide (AID 748);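 further: fluorescence polarization from a fluorescein-labelled TR3 peptide binding purified Bcl-B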
T5 sequence (Q9HD36 whole entry): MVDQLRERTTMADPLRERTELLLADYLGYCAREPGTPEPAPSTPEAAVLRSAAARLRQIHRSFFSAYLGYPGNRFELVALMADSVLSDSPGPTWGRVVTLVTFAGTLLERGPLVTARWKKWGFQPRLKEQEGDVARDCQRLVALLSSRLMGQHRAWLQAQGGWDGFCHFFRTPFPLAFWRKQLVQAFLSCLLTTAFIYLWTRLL

Beta-galactosidase = Beta-galactosidase (Escherichia coli, UniProt Q8VNN2); assay: beta-galactosidase enzyme inhibitors and activators, dose response, artefact control for CCR6 antagonist project, biochemical, E. coli enzyme, set 3 (AID 504712); format: functional
Hexokinase HKDC1 = Hexokinase HKDC1 (Homo sapiens, UniProt Q2TB90); assay: HKDC1 hexokinase inhibitors, dose response, biochemical, W721R variant (AID 504729); format: functional
Genome polyprotein = Genome polyprotein (dengue virus type 2, UniProt P29990); assay: Dengue-2 NS5 methyltransferase inhibitors, primary screen, biochemical, confirmation dose response (AID 588689); format: functional
[22] = Fluorescence-based cell-based high throughput dose response assay for inhibitors of the interaction of nucleotide-binding oligomerization domain containing 2 (NOD2) and the receptor-interacting serine-threonine kinase 2 (RIPK2).; format: functional; settings: Homo sapiens
Beta Lactamase = Beta Lactamase (Pseudomonas aeruginosa, UniProt Q932Y6); assay: beta-lactamase reporter inhibitor potency, dose response, artefact control for NOD2-RIPK2 interaction inhibitor project, BLA reporter cells, FRET fluorescence (AID 651552); format: functional, cell-based
[23] = THP-1 cell cytotoxicity, dose response, cytotoxicity control for Vif-APOBEC3G degradation inhibitor project, THP-1 cells (AID 1117359); format: functional; settings: Human immunodeficiency virus 1, THP-1
[24] = target: Acylamino-acid-releasing enzyme (Homo sapiens, UniProt P13798); assay: PME-1 inhibitor potency by in-gel ABPP, dose response, selectivity assay for PME-1 inhibitor project, cell lysate, mouse brain cytosol, FP-rhodamine, panel member APEH Assay Panel member description: Inhibition of N-acylaminoacyl-peptide hydrolase (APEH) (anti-target) (AID 2366)
HEK293 [25] = assay: PMA/Ionomycin induced NF-kB luciferase assay in 293- NF-kB-Luc stable cells. [Related pubchem assays: 1299, 1270, 1295, 1375, 1287, 1281, 1293, 1291, 1289, 1280, 465, 1364, 1282, 1372, 1365, 1370, 1367, 1366, 1269, 1373, 1292, 1290, 1302, 1371, 1283, 1271, 1294, 1374, 1368, 1369 ]; format: functional, cell-based; settings: Homo sapiens
[26] = target: T6, Luciferin 4-monooxygenase (Photinus pyralis, UniProt P08659); assay: In vitro luciferase assay using purified luciferase. [Related pubchem assays: 1299, 1270, 1295, 1375, 1287, 1281, 1293, 1291, 1289, 1280, 465, 1364, 1282, 1372, 1365, 1370, 1367, 1366, 1266, 1373, 1292, 1290, 1302, 1371, 1283, 1271, 1294, 1374, 1368, 1369 ]
HEK293 [27] = assay: Cytotoxicity assay in HEK293 cells. [Related pubchem assays (depositor defined):AID1266, AID1269, AID1270, AID1271, AID1280, AID1281, AID1282, AID1283, AID1287, AID1289, AID1290, AID1291, AID1292, AID1293, AID1294, AID1295, AID1299, AID1302, AID1364, AID1365, AID1366, AID1367, AID1369, AID1370, AID1371, AID1372, AID1373, AID1374, AID1375, AID1384 …; format: functional, cell-based; settings: Homo sapiens
HEK293 [28] = assay: TNF Induced NF-kB Luciferase in 293-NF-kB-Luc Stable Cells. [Related pubchem assays: 1266, 1299, 1269, 1373, 1292, 1290, 1302, 1371, 1283, 1270, 1295, 1271, 1375, 1294, 1374, 1281, 1293, 1291, 1289, 1280, 465, 1368, 1364, 1282, 1372, 1365, 1369, 1370, 1367, 1366 ]; format: functional, cell-based; settings: Homo sapiens
[29] = target: T6, Luciferin 4-monooxygenase; assay: firefly luciferase enzyme inhibitors, dose response, biochemical, luminescence (AID 1891)
[30] = Luminescence Cell-Based Dose Confirmation HTS to Identify Inhibitors of Platelet Dense Granule Release. [Related pubchem assays: 1663 (Primary HTS), 1678 (Summary of Project)]; format: functional
[31] = target: Induced myeloid leukemia cell differentiation protein Mcl-1 (Homo sapiens, UniProt Q07820); format: functional
[32] = target: NACHT, LRR and PYD domains-containing protein 3 (Homo sapiens, UniProt Q96P20); assay: NALP3 inhibitors in yeast, dose response, luminescent (AID 488799); format: functional

T6 sequence (P08659 whole entry): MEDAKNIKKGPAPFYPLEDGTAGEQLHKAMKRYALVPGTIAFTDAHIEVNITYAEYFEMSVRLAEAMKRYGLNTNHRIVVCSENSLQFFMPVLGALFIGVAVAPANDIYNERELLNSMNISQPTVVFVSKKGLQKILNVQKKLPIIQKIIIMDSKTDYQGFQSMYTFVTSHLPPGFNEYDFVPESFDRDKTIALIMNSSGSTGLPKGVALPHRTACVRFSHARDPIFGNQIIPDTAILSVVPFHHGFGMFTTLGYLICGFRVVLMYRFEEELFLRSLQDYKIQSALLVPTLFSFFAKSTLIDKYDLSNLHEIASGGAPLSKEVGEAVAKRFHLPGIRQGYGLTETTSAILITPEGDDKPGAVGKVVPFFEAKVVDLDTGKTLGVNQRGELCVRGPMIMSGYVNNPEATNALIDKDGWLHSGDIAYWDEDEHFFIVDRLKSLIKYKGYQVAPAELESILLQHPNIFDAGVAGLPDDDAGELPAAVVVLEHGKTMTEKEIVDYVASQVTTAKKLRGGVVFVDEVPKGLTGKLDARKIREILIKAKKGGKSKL
T4 sequence (Q00975 whole entry): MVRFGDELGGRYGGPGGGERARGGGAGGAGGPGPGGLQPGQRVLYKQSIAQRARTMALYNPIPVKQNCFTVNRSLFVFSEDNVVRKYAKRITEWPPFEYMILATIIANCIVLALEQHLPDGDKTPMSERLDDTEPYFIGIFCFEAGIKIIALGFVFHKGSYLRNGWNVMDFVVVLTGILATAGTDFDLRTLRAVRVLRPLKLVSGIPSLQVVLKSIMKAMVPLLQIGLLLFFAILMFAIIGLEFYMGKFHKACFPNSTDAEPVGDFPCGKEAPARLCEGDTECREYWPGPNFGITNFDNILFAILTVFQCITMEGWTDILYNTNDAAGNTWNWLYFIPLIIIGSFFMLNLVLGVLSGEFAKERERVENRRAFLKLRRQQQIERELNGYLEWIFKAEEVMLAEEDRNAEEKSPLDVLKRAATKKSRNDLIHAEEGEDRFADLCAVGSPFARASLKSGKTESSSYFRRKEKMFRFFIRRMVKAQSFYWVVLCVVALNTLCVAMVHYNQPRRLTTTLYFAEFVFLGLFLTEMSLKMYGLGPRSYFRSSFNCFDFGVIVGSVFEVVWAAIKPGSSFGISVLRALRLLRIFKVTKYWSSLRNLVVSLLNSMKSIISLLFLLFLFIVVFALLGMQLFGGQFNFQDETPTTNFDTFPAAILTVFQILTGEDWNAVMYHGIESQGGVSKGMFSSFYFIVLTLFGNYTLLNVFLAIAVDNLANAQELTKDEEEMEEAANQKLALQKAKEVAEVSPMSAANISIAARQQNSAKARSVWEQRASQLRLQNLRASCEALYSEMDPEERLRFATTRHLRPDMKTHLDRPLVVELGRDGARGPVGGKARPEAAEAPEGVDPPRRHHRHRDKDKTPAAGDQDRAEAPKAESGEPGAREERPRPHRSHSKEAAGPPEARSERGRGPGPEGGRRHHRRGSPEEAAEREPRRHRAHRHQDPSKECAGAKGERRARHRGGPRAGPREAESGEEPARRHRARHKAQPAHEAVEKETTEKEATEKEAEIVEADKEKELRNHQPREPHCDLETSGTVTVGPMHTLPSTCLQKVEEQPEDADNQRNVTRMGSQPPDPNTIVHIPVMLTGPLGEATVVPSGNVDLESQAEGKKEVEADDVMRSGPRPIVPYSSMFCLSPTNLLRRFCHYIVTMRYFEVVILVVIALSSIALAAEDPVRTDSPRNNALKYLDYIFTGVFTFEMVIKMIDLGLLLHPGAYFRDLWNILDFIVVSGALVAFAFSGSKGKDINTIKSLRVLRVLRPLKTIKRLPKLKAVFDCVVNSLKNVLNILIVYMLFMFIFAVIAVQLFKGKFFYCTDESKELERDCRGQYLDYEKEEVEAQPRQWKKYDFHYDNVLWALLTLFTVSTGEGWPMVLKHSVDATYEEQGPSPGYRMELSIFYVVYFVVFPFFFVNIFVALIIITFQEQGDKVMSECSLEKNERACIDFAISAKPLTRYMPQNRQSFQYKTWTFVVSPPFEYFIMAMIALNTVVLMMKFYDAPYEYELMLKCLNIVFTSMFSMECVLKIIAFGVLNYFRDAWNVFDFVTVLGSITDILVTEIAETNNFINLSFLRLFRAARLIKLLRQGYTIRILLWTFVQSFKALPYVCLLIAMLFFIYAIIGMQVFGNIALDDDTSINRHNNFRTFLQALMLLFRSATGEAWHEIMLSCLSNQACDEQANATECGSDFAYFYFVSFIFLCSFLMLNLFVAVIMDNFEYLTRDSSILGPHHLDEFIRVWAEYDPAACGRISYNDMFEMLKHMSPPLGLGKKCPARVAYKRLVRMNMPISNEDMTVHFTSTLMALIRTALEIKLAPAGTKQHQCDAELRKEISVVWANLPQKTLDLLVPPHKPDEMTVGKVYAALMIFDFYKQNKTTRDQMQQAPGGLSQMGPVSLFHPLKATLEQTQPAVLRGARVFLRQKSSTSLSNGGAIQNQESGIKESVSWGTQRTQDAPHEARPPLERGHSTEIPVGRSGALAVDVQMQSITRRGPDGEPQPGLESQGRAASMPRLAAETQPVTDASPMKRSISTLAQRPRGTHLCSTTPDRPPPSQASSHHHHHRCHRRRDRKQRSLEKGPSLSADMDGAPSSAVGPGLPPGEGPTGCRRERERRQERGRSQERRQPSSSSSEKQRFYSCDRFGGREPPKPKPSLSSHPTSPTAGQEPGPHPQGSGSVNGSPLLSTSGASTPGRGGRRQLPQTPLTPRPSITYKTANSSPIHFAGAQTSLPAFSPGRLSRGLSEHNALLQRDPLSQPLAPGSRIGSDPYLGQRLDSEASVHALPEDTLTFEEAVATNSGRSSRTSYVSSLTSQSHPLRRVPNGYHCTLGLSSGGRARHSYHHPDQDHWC
T4 sequence (Q02410 whole entry): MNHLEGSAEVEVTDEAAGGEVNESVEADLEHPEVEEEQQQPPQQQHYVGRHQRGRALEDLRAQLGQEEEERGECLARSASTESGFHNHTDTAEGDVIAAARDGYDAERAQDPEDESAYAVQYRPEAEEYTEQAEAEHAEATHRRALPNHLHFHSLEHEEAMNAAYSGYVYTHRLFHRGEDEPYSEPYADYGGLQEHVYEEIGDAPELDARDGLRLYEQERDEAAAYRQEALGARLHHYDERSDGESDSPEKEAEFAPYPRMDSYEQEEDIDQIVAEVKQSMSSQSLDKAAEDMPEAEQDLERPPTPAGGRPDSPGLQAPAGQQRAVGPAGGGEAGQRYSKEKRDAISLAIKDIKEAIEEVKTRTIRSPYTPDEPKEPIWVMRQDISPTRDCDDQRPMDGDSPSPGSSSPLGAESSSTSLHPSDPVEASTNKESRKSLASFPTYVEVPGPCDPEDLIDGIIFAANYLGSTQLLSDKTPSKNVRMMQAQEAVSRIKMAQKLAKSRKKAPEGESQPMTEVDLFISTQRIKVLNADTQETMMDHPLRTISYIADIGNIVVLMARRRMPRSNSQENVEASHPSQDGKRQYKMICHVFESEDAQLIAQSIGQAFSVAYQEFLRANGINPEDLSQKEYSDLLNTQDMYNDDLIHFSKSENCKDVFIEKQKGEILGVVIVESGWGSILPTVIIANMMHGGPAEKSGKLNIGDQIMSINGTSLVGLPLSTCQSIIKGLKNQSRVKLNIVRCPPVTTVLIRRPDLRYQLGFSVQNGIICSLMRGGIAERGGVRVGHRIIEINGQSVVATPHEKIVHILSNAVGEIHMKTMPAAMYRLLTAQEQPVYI
Chain of Acylamino-acid-releasing enzyme (P13798 whole entry): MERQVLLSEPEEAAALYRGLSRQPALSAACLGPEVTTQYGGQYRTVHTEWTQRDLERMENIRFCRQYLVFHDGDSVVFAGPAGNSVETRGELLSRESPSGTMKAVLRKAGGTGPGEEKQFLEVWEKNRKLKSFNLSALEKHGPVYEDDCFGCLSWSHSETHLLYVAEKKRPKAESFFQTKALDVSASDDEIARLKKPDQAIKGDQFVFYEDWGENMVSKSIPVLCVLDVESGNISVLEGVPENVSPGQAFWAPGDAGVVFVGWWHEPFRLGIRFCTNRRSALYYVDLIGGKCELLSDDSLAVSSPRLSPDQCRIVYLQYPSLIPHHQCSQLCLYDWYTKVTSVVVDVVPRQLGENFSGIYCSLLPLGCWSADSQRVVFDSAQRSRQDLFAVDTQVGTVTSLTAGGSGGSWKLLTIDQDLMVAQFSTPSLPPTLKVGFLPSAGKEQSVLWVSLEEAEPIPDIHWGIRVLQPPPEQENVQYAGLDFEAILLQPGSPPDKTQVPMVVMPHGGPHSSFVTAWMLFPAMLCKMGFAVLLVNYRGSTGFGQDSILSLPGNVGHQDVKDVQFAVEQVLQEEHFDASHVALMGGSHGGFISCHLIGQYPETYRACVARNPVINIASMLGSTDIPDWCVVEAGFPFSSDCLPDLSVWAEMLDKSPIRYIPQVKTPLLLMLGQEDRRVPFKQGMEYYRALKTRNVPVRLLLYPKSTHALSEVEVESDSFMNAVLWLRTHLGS
Chain of Melanin-concentrating hormone receptor 1 (Q99705 whole entry): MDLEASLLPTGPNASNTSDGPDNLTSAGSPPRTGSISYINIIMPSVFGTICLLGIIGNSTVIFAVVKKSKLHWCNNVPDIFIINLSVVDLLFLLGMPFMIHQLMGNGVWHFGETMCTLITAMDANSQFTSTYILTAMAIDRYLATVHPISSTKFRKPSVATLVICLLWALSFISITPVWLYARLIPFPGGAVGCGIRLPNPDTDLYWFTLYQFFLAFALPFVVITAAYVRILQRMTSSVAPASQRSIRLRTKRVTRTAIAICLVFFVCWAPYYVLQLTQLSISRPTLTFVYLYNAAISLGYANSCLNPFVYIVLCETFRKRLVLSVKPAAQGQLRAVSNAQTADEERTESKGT
Chain of Dual specificity protein phosphatase 3 (P51452 whole entry): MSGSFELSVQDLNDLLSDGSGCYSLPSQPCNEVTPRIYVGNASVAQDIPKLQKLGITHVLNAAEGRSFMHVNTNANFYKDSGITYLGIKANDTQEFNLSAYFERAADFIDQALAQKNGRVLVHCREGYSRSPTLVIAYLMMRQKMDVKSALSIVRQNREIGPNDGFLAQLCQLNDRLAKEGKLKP

O=C(N/N=C/c1cn(-c2ccccc2)nc1-c1cc2ccccc2o1)c1cccnc1
EC50 [1]: > 40 µM (inactive)
EC50 [2]: > 67.5 µM (inactive)
EC50 (cells [3]): > 67.5 µM (inactive)

Cc1cc(Br)c(-c2ccc(/C=C3/NC(=S)NC3=O)o2)cc1C
Ki [4]: 3.19 µM (active)

CN(C)C1=NC[C@H](Cc2ccccc2)N1CC1CCC(C(C)(C)C)CC1 (stereo partly drawn)
IC50 [5]: 7.86 µM (active)
IC50 [6]: 10.6 µM (not active)

CCC(=O)Nc1nc2ccccc2n1Cc1ccc(Cl)cc1
EC50 [7]: 1.1 µM (active)
CC50 [8]: 33.9 µM (active)
EC50 [9]: 8.28 µM (active)
IC50 (Interleukin-8 [10]): > 25 µM (inactive)
IC50 (Interleukin-8 [11]): > 25 µM (inactive)
IC50 (Tumor necrosis factor): > 20 µM (inactive)
CC50 [12]: > 40 µM (active)
IC50 [13]: 12.3 µM (active)
CC50 [14]: > 20 µM (active)
CC50 [15]: 11 µM (active)
IC50 [16]: 15.8 µM (active)
IC50 (cells [17]): 0.29 µM (active)
IC50 (HEK293 [18]): > 20 µM (inactive)

CCOc1ccc(CCOc2c(Cl)cnn(-c3ccccc3)c2=O)cc1OCC
IC50 [19]: > 20 µM (inactive)

COc1ccc(CNC(=O)COC(=O)c2cccc3ccccc23)cc1
IC50 [20]: 26.4 µM (active)
IC50 [21]: > 56.8 µM (inactive)

CC(=O)C1=C(O)C(=O)N(Cc2ccccc2)C1c1ccco1 (stereo not drawn)
IC50 (Bcl-2-like protein 10): > 100 µM (inactive)

Cc1[nH]c2ccccc2c1C1=CC(=O)C=CC1=O
IC50 (Beta-galactosidase): > 66.6 µM (inactive)
IC50 (Hexokinase HKDC1): 3.4 µM (active)
IC50 (Genome polyprotein): 17.7 µM (active)
IC50 [22]: 3.46 µM (active)
IC50 (Beta Lactamase): 19.9 µM (inactive)
CC50 [23]: > 40 µM (active)

CC(C)(C)S(=O)(=O)/C(C#N)=C/c1cccn1S(=O)(=O)c1ccccc1
IC50 [24]: > 50 µM (inactive)

Cc1oc2cc3c(C(=O)OCCN(C)C)c(C)oc3cc2c1C(=O)OCCN(C)C
EC50 (HEK293 [25]): 0.781 µM (active)
EC50 [26]: > 8 µM (not active)
EC50 (HEK293 [27]): 13.9 µM (inactive)
EC50 (HEK293 [28]): 0.11 µM (active)

Oc1c(/C=N/c2ccccn2)sc2ccccc12
EC50 [29]: 1.8 µM (active)
EC50 [30]: 11.5 µM (active)
IC50 [31]: 1.64 µM (active)
IC50 [32]: 10.2 µM (active)
